Measurements reported in PubChem BioAssay AID1963849 (Molecular Pharmacology Branch, DTP, NCI, 2024).
Several values for one entry are separate records, joined by “and”; a condition that tells them apart may be missing. Equal values may be shown once.

System: 299254-011-R-J1-PDC complex spheroid viability
Assay: Anticancer human tumor 299254-011-R-J1-PDC patient-derived melanoma cell line growth inhibition [POLQ]
Settings: for viability, T/C: stronger effect = lower value
Procedure: Multicellular complex tumor spheroid response to Polymerase (POL) inhibitors (novobiocin, ART-558, RP6685) in combination with a variety of drugs and investigational agents in selected tumor cell lines
The POL inhibitors (novobiocin, ART-558, and RP6685) were evaluated both individually and in combination with standard of care and investigational anticancer small molecules within a complex spheroid model of solid tumors. . Complex spheroids include a stromal component modeled by human endothelial cells (HUVEC) and fibroblasts modeled by human mesenchymal stem cells (MSCs). The concentration ranges selected for each drug and investigational agent were based upon clinically achievable concentrations if the clinical Cmax of the agent was known.
Compounds. The drugs and investigational agents: novobiocin (NSC847541), ART-558 (NSC835418), RP-6685 (NSC848927), peposertib (NSC802822), ceralasertib (NSC780249), elimusertib (NSC800525), camonsertib (NSC841442), AZD-1390 (NSC803789), olaparib (NSC753686), talazoparib (NSC767125), rucaparib (NSC756644), sotorasib (NSC818433), MRTX-1133 (NSC836407), SN-38 (NSC673596), topotecan (NSC609699), epotoside (NSC141540), doxorubicin (NSC123127), gemcitabine (NSC613327), 5-fluorouracil (NSC19893), paclitaxel (NSC125973), vemurafenib (NSC761431), MSA-2 (NSC828583), SN-011 (NSC837082), adavosertib (NSC754352), prexasertib (NSC758257), carboplatin (NSC241240) and oxaliplatin (NSC266046), were obtained from the National Cancer Institute (NCI) Developmental Therapeutics Program Chemical Repository (21). The FDA-approved anticancer drug set is available from the Developmental Therapeutics Program at https://dtp.cancer.gov/organization/dscb/obtaining/. […] The stock solutions were prepared in dimethyl sulfoxide (DMSO, Sigma-Aldrich, St. Louis, MO, cat. D2650), except for the platinum compounds which were prepared in saline (Quality Biological, Gaithersburg, MD, cat. 114-055-101), at 800-fold the tested concentration and stored at -70 degrees C prior to their use. All drugs and investigational agents were tested over a range starting from a high concentration at or near the clinical Cmax and decreasing in half-log increments. If the clinical Cmax for an agent had not been determined, the highest concentration tested was 10 microM, except for SN-38, which was tested at a high concentration of 1 microM.
Cell Culture. All cells were maintained in an incubator at 37 degrees C and 5% CO2 with 95% humidity. The PDC lines were cultured according to standard operating procedures established by the NCI PDMR (https://pdmr.cancer.gov). Table 3 of the manuscript, lists the cell lines along with the number of the three cell types plated to form the mct-spheroids and media for tumor cell growth. After thawing, all PDC lines, except 997537-175-T-J1-PDC and 415267-285-R-J2-PDC, were cultured in Matrigel-coated flasks prepared with a working solution of 1X Ham's F-12 nutrient mix, without supplementation (Thermo Fisher Scientific, cat. 11765054), 100 U/mL penicillin-streptomycin (Thermo Fisher Scientific, cat. 15140122), and 2.5% Matrigel (Corning Inc., Corning, NY, cat. 354248) for the first three passages. The two PDC lines 997537-175-T-J1-PDC and 415267-285-R-J2-PDC were cultured on uncoated flasks. The 857933-349-R-J2-PDC line was cultured in 6C/Colon 1B media containing advanced DMEM/F-12 (Thermo Fisher Scientific, cat. 12634028), 10 mM HEPES (Thermo Fisher Scientific, cat. 15630080), 1X GlutaMAX supplement (Thermo Fisher Scientific, cat. 35050061), 0.1 mg/mL primocin (InvivoGen, San Diego, CA, cat. ant-pm-2), 10% defined fetal bovine serum, heat inactivated (HyClone Laboratories Inc., Logan, UT, cat. SH30070.03HI), 50% L-WRN conditioned media (ATCC, cat. CRL-3276), 1.25 mM N-Acetyl-L-cysteine (Sigma-Aldrich, cat. A9165), 10 mM nicotinamide (Sigma-Aldrich, cat. N0636), 1X B-27 supplement (Thermo Fisher Scientific, cat. 17504044), 1X N-2 supplement (Thermo Fisher Scientific, cat. […]
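Further: spheroids exposed to drugs for one week before measurement.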
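Wherever viability, T/C is given: percent viability relative to DMSO vehicle control taken as 100%.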

## CNCc1ccc(-c2[nH]c3cc(F)cc4c3c2CCNC4=O)cc1 + COC1C(OC(N)=O)C(O)C(Oc2ccc3c(O)c(NC(=O)c4ccc(O)c(CC=C(C)C)c4)c(=O)oc3c2C)OC1(C)C
Curve of first compound, second compound 0.0316 µM
  IC50: > 10 µM
Curve of first compound, second compound 0.1 µM
  IC50: > 10 µM
Curve of first compound, second compound 0.316 µM
  IC50: > 10 µM
Curve of first compound, second compound 1 µM
  IC50: > 10 µM
Curve of first compound, second compound 3.16 µM
  IC50: > 10 µM
Curve of first compound, second compound 10 µM
  IC50: > 10 µM
Second compound 0.0316 µM, first compound 0.0316 µM
  viability, T/C: 99.5%
Second compound 0.0316 µM, first compound 0.1 µM
  viability, T/C: 98.7%
Second compound 0.0316 µM, first compound 0.316 µM
  viability, T/C: 102%
Second compound 0.0316 µM, first compound 1 µM
  viability, T/C: 117%
Second compound 0.0316 µM, first compound 3.16 µM
  viability, T/C: 114%
Second compound 0.0316 µM, first compound 10 µM
  viability, T/C: 103%
Second compound 0.1 µM, first compound 0.0316 µM
  viability, T/C: 114%
Second compound 0.1 µM, first compound 0.1 µM
  viability, T/C: 106%
Second compound 0.1 µM, first compound 0.316 µM
  viability, T/C: 102%
Second compound 0.1 µM, first compound 1 µM
  viability, T/C: 107%
Second compound 0.1 µM, first compound 3.16 µM
  viability, T/C: 118%
Second compound 0.1 µM, first compound 10 µM
  viability, T/C: 133%
Second compound 0.316 µM, first compound 0.0316 µM
  viability, T/C: 91.6%
Second compound 0.316 µM, first compound 0.1 µM
  viability, T/C: 94.9%
Second compound 0.316 µM, first compound 0.316 µM
  viability, T/C: 98.7%
Second compound 0.316 µM, first compound 1 µM
  viability, T/C: 105%
Second compound 0.316 µM, first compound 3.16 µM
  viability, T/C: 97.2%
Second compound 0.316 µM, first compound 10 µM
  viability, T/C: 116%
Second compound 1 µM, first compound 0.0316 µM
  viability, T/C: 91.8%
Second compound 1 µM, first compound 0.1 µM
  viability, T/C: 105%
Second compound 1 µM, first compound 0.316 µM
  viability, T/C: 105%
Second compound 1 µM, first compound 1 µM
  viability, T/C: 117%
Second compound 1 µM, first compound 3.16 µM
  viability, T/C: 117%
Second compound 1 µM, first compound 10 µM
  viability, T/C: 115%
Second compound 3.16 µM, first compound 0.0316 µM
  viability, T/C: 113%
Second compound 3.16 µM, first compound 0.1 µM
  viability, T/C: 90.9%
Second compound 3.16 µM, first compound 0.316 µM
  viability, T/C: 95.4%
Second compound 3.16 µM, first compound 1 µM
  viability, T/C: 118%
Second compound 3.16 µM, first compound 3.16 µM
  viability, T/C: 105%
Second compound 3.16 µM, first compound 10 µM
  viability, T/C: 111%
Second compound 10 µM, first compound 0.0316 µM
  viability, T/C: 113%
Second compound 10 µM, first compound 0.1 µM
  viability, T/C: 104%
Second compound 10 µM, first compound 0.316 µM
  viability, T/C: 111%
Second compound 10 µM, first compound 1 µM
  viability, T/C: 106%
Second compound 10 µM, first compound 3.16 µM
  viability, T/C: 96.3%
Second compound 10 µM, first compound 10 µM
  viability, T/C: 100%

## CCc1cc2c(N3CCc4c(cc(Cn5ccnc5)cc4-c4cn(C)nc4C(F)(F)F)C3=O)cc(C)nc2c(OC)n1
Compound 0.0316 µM
  viability, T/C: 131% and 104% and 92.7%
Compound 0.1 µM
  viability, T/C: 90.2% and 96.5% and 106%
Compound 0.316 µM
  viability, T/C: 118% and 92.2% and 99.7%
Compound 1 µM
  viability, T/C: 99.2% and 94.1% and 99.4%
Compound 3.16 µM
  viability, T/C: 103% and 86.5% and 90.4%
Compound 10 µM
  viability, T/C: 59.6% and 62.7% and 67.7%
Curve of compound
  IC50: > 10 µM

## CNCc1ccc(-c2[nH]c3cc(F)cc4c3c2CCNC4=O)cc1
Compound 0.0316 µM
  viability, T/C: 117% and 108% and 100%
Compound 0.1 µM
  viability, T/C: 95.8% and 94.7% and 99.7%
Compound 0.316 µM
  viability, T/C: 113% and 105% and 97.2%
Compound 1 µM
  viability, T/C: 109% and 96.3% and 92.8%
Compound 3.16 µM
  viability, T/C: 111% and 113% and 110%
Compound 10 µM
  viability, T/C: 119% and 107% and 109%
Curve of compound
  IC50: > 10 µM
